In PubChem BioAssay (NCI):
Where “and” joins values, the source holds several entries; their conditions need not be identical. Identical values can stand only once.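 Following 48 hours of exposure in 96-well plates, responses at five concentrations were used to interpolate endpoints linearly. GI50: concentration for 50% inhibition of growth. TGI is the concentration that stops growth completely.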

What was measured:
Test in all cases: DTP human tumour cell line panel, 48 h
HOP-62 NSCLC = system: HOP-62 NSCLC
HCC-2998 colon = system: HCC-2998 colon
EKVX NSCLC = system: EKVX NSCLC
OVCAR-4 ovarian = system: OVCAR-4 ovarian
MDA-MB-435 = system: MDA-MB-435
SK-OV-3 ovarian = system: SK-OV-3 ovarian
SF-539 CNS = system: SF-539 CNS
KM12 colon = system: KM12 colon
IGROV1 ovarian = system: IGROV1 ovarian
MALME-3M melanoma = system: MALME-3M melanoma
NCI-H460 lung = system: NCI-H460 lung
HS 578T breast = system: HS 578T breast
OVCAR-3 ovarian = system: OVCAR-3 ovarian
SR leukemia = system: SR leukemia
U251 CNS = system: U251 CNS
UO-31 renal = system: UO-31 renal
786-0 renal = system: 786-0 renal
UACC-257 melanoma = system: UACC-257 melanoma
SF-295 CNS = system: SF-295 CNS
K-562 leukemia = system: K-562 leukemia
OVCAR-8 ovarian = system: OVCAR-8 ovarian
RXF 393 renal = system: RXF 393 renal
MDA-MB-231 breast = system: MDA-MB-231 breast
A498 renal = system: A498 renal
SK-MEL-2 melanoma = system: SK-MEL-2 melanoma
NCI-H226 lung = system: NCI-H226 lung
CCRF-CEM leukemia = system: CCRF-CEM leukemia
BT-549 breast = system: BT-549 breast
TK-10 renal = system: TK-10 renal
SF-268 CNS = system: SF-268 CNS
LOX IMVI melanoma = system: LOX IMVI melanoma
M14 melanoma = system: M14 melanoma
SN12C renal = system: SN12C renal
NCI/ADR-RES ovarian = system: NCI/ADR-RES ovarian
COLO 205 colon = system: COLO 205 colon
ACHN renal = system: ACHN renal
HCT-15 colon = system: HCT-15 colon
SW-620 colon = system: SW-620 colon
DU-145 prostate = system: DU-145 prostate
RPMI-8226 leukemia = system: RPMI-8226 leukemia
SNB-75 CNS = system: SNB-75 CNS
SK-MEL-28 melanoma = system: SK-MEL-28 melanoma
PC-3 prostate = system: PC-3 prostate
HL-60(TB) leukemia = system: HL-60(TB) leukemia
HT29 colon = system: HT29 colon
HOP-92 NSCLC = system: HOP-92 NSCLC
CAKI-1 renal = system: CAKI-1 renal
NCI-H522 lung = system: NCI-H522 lung
MCF7 breast = system: MCF7 breast
HCT-116 colon = system: HCT-116 colon
UACC-62 melanoma = system: UACC-62 melanoma
SK-MEL-5 melanoma = system: SK-MEL-5 melanoma
NCI-H23 lung = system: NCI-H23 lung
SNB-19 CNS = system: SNB-19 CNS
A549 NSCLC = system: A549 NSCLC
MOLT-4 leukemia = system: MOLT-4 leukemia
T-47D breast = system: T-47D breast
OVCAR-5 ovarian = system: OVCAR-5 ovarian

Structure (SMILES): CNC(=O)c1ccc(Nc2ncc(C(F)(F)F)c(NCc3nccnc3N(C)S(C)(=O)=O)n2)cc1
- GI50 (HOP-62 NSCLC): 2.16 µM and 2.07 µM and 1.98 µM
- TGI (HOP-62 NSCLC): > 10 µM and 9.71 µM and 9.8 µM
- GI50 (HCC-2998 colon): 3.68 µM and 2.54 µM and 3.86 µM
- TGI (HCC-2998 colon): > 10 µM and 12.9 µM and 18 µM
- GI50 (EKVX NSCLC): 2.49 µM and 2.64 µM
- TGI (EKVX NSCLC): > 10 µM and 10.8 µM
- GI50 (OVCAR-4 ovarian): 5.37 µM and 2.41 µM and 1.9 µM
- TGI (OVCAR-4 ovarian): > 10 µM and 12.8 µM and 10.5 µM
- GI50 (MDA-MB-435): 3.55 µM and 3.05 µM and 2.67 µM
- TGI (MDA-MB-435): > 10 µM and 13.6 µM and 15.2 µM
- GI50 (SK-OV-3 ovarian): 3.16 µM and 2.27 µM and 2.41 µM
- TGI (SK-OV-3 ovarian): > 10 µM and 9.35 µM and 11.4 µM
- GI50 (SF-539 CNS): 1.86 µM and 1.99 µM and 1.82 µM
- TGI (SF-539 CNS): 4.76 µM and 5.11 µM and 4.9 µM
- GI50 (KM12 colon): 0.383 µM and 0.309 µM and 0.307 µM
- TGI (KM12 colon): > 10 µM and 6.33 µM and 11.3 µM
- GI50 (IGROV1 ovarian): 0.881 µM and 1.81 µM and 1.64 µM
- TGI (IGROV1 ovarian): > 10 µM and 12 µM and 13.1 µM
- GI50 (MALME-3M melanoma): 4.1 µM and 2.98 µM and 3.71 µM
- TGI (MALME-3M melanoma): > 10 µM and 13.3 µM and 12.7 µM
- GI50 (NCI-H460 lung): 2.05 µM and 2.75 µM and 2.16 µM
- TGI (NCI-H460 lung): > 10 µM and 10.2 µM and 11.1 µM
- GI50 (HS 578T breast): 0.283 µM and 2.44 µM and 1.5 µM
- TGI (HS 578T breast): 7.19 µM and 9.3 µM and 8.29 µM
- GI50 (OVCAR-3 ovarian): 3.16 µM and 2.26 µM and 2.71 µM
- TGI (OVCAR-3 ovarian): > 10 µM and 8.43 µM and 12.8 µM
- GI50 (SR leukemia): 1.91 µM and 1.33 µM and 2.39 µM
- TGI (SR leukemia): 8.17 µM and 7.7 µM and 9.42 µM
- GI50 (U251 CNS): 3.29 µM and 3.18 µM and 2.88 µM
- TGI (U251 CNS): > 10 µM and 12 µM and 13.6 µM
- GI50 (UO-31 renal): 1.03 µM and 1.94 µM and 2.14 µM
- TGI (UO-31 renal): 5.12 µM and 6.97 µM and 8.22 µM
- GI50 (786-0 renal): 2.17 µM and 1.98 µM and 2.01 µM
- TGI (786-0 renal): > 10 µM and 11.6 µM and 18.3 µM
- GI50 (UACC-257 melanoma): 4.66 µM and 3.75 µM
- TGI (UACC-257 melanoma): > 10 µM and 11.2 µM and 15.5 µM
- GI50 (SF-295 CNS): 3.04 µM and 2.6 µM and 2.61 µM
- TGI (SF-295 CNS): > 10 µM and 10.9 µM and 12.9 µM
- GI50 (K-562 leukemia): 4.84 µM and 3.2 µM and 3.42 µM
- TGI (K-562 leukemia): > 10 µM and 17.7 µM and > 61.1 µM
- GI50 (OVCAR-8 ovarian): 3.44 µM and 3.69 µM and 3.83 µM
- TGI (OVCAR-8 ovarian): > 10 µM and 13.6 µM and 18 µM
- GI50 (RXF 393 renal): 0.637 µM and 1.39 µM and 0.575 µM
- TGI (RXF 393 renal): 2.74 µM and 3.76 µM and 2.85 µM
- GI50 (MDA-MB-231 breast): 2.55 µM and 3.12 µM and 2.6 µM
- TGI (MDA-MB-231 breast): > 10 µM and 11.9 µM
- GI50 (A498 renal): 2.02 µM and 1.59 µM and 1.39 µM
- TGI (A498 renal): 5.61 µM and 3.89 µM and 4.18 µM
- GI50 (SK-MEL-2 melanoma): 0.783 µM and 1.32 µM and 1.6 µM
- TGI (SK-MEL-2 melanoma): 3.71 µM and 4.28 µM and 4.63 µM
- GI50 (NCI-H226 lung): 1.26 µM and 2.71 µM and 3.28 µM
- TGI (NCI-H226 lung): 6.67 µM and 12 µM and 18.2 µM
- GI50 (CCRF-CEM leukemia): 3.27 µM and 3.21 µM and 3.36 µM
- GI50 (BT-549 breast): 2.98 µM and 2.06 µM and 2.14 µM
- TGI (BT-549 breast): > 10 µM and 7.41 µM and 9.73 µM
- GI50 (TK-10 renal): 1.65 µM and 1.7 µM and 3.09 µM
- TGI (TK-10 renal): > 10 µM and 10.4 µM and 13.3 µM
- GI50 (SF-268 CNS): 2.89 µM and 2.23 µM and 2.73 µM
- TGI (SF-268 CNS): > 10 µM and 8.63 µM and 11 µM
- GI50 (LOX IMVI melanoma): 2.1 µM and 2.06 µM and 2.02 µM
- TGI (LOX IMVI melanoma): > 10 µM and 8.03 µM and 8.91 µM
- GI50 (M14 melanoma): 2 µM and 2.27 µM and 1.98 µM
- TGI (M14 melanoma): > 10 µM and 11.6 µM and 19 µM
- GI50 (SN12C renal): 3.46 µM and 3.4 µM and 3.41 µM
- TGI (SN12C renal): > 10 µM and 11.8 µM and 14.7 µM
- GI50 (NCI/ADR-RES ovarian): 8.27 µM and 8.53 µM
- TGI (NCI/ADR-RES ovarian): > 10 µM and 25.9 µM and 27.1 µM
- GI50 (COLO 205 colon): 1.32 µM and 1.37 µM and 1.39 µM
- TGI (COLO 205 colon): 2.91 µM and 2.78 µM and 3.17 µM
- GI50 (ACHN renal): 1.67 µM and 1.77 µM and 1.5 µM
- TGI (ACHN renal): > 10 µM and 9.44 µM and 8.18 µM
- GI50 (HCT-15 colon): 2.92 µM and 2.65 µM and 2.57 µM
- TGI (HCT-15 colon): > 10 µM and 11.3 µM and 12.6 µM
- GI50 (SW-620 colon): 2.82 µM and 3.21 µM and 2.74 µM
- TGI (SW-620 colon): > 10 µM and 9.82 µM and 11.7 µM
- GI50 (DU-145 prostate): 2.6 µM and 2.1 µM and 2.75 µM
- TGI (DU-145 prostate): > 10 µM and 10.9 µM and 15.9 µM
- GI50 (RPMI-8226 leukemia): 2.59 µM and 2.95 µM and 2.27 µM
- TGI (RPMI-8226 leukemia): 6.9 µM and 8.16 µM and 7.58 µM
- GI50 (SNB-75 CNS): 1.52 µM and 1.41 µM
- TGI (SNB-75 CNS): 4.9 µM
- GI50 (SK-MEL-28 melanoma): 3.96 µM and 2.88 µM and 2.64 µM
- TGI (SK-MEL-28 melanoma): > 10 µM and 9.49 µM and 9.43 µM
- GI50 (PC-3 prostate): 3.54 µM and 3.41 µM and 2.85 µM
- TGI (PC-3 prostate): > 10 µM and 14.3 µM and 13.2 µM
- GI50 (HL-60(TB) leukemia): 2.02 µM and 2.19 µM and 2.49 µM
- TGI (HL-60(TB) leukemia): 8.1 µM and 6.09 µM and 7.7 µM
- GI50 (HT29 colon): 3.41 µM and 2.75 µM and 3.21 µM
- TGI (HT29 colon): > 10 µM and 8.63 µM and 11.3 µM
- TGI (HOP-92 NSCLC): 2.37 µM and 6.54 µM and 6.4 µM
- GI50 (CAKI-1 renal): 1.8 µM and 1.41 µM and 1.88 µM
- TGI (CAKI-1 renal): > 10 µM and 8.35 µM and 12.1 µM
- GI50 (NCI-H522 lung): 1.97 µM and 2.52 µM and 2.76 µM
- TGI (NCI-H522 lung): 7.06 µM and 13.3 µM and 7.4 µM
- GI50 (MCF7 breast): 1.79 µM and 2.16 µM and 1.88 µM
- TGI (MCF7 breast): > 10 µM and 9.76 µM and 11.4 µM
- GI50 (HCT-116 colon): 2.08 µM and 2.4 µM and 1.71 µM
- TGI (HCT-116 colon): > 10 µM and 10.5 µM and 15.1 µM
- GI50 (UACC-62 melanoma): 1.76 µM and 1.66 µM and 1.63 µM
- TGI (UACC-62 melanoma): > 10 µM and 4.37 µM and 4.24 µM
- GI50 (SK-MEL-5 melanoma): 1.85 µM and 2.1 µM and 2.09 µM
- TGI (SK-MEL-5 melanoma): 4.59 µM and 4.55 µM and 5.49 µM
- GI50 (NCI-H23 lung): 2.61 µM and 2.38 µM and 2.81 µM
- TGI (NCI-H23 lung): 8.64 µM and 7 µM
- GI50 (SNB-19 CNS): 3.21 µM and 3.17 µM and 3.31 µM
- TGI (SNB-19 CNS): > 10 µM and 13.3 µM and 14.7 µM
- GI50 (A549 NSCLC): 2.79 µM and 2.94 µM and 3.13 µM
- TGI (A549 NSCLC): > 10 µM and 8.79 µM and 12.1 µM
- GI50 (MOLT-4 leukemia): 3.25 µM and 2.64 µM and 3.09 µM
- TGI (MOLT-4 leukemia): 9.97 µM and 8.58 µM and 8.76 µM
- GI50 (T-47D breast): 3.47 µM and 3.46 µM and 2.9 µM
- TGI (T-47D breast): > 10 µM and 12.5 µM and 10.4 µM
- GI50 (OVCAR-5 ovarian): 2.18 µM and 1.98 µM and 1.93 µM
- TGI (OVCAR-5 ovarian): > 10 µM and 9.03 µM and 9.56 µM
